Assay results reported in ChEMBL document CHEMBL1201862, “PubChem BioAssay data set” (2004).
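Following 48 hours of exposure in 96-well plates, responses at five concentrations were used to interpolate endpoints linearly. GI50 = concentration required for 50% inhibition of growth.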 Active and inactive are the calls of the source. Rule as the data show it: active = GI50 up to about 1.1 µM and inactive = higher.

Key:
Assay in all cases: NCI-60 cell line screen, 48 h
Malme-3M = tested on: Malme-3M
U-251 = tested on: U-251
CAKI-1 = tested on: CAKI-1
OVCAR-8 = tested on: OVCAR-8
COLO 205 = tested on: COLO 205
NCI-H226 = tested on: NCI-H226
Hs-578T = tested on: Hs-578T
BT-549 = tested on: BT-549
HT-29 = tested on: HT-29
786-0 = tested on: 786-0
A498 = tested on: A498
KM12 = tested on: KM12
M14 = tested on: M14
MDA-MB-435 = tested on: MDA-MB-435
LOX IMVI = tested on: LOX IMVI
DU-145 = tested on: DU-145
SW-620 = tested on: SW-620
IGROV-1 = tested on: IGROV-1
SK-MEL-28 = tested on: SK-MEL-28
SF-268 = tested on: SF-268
RPMI-8226 = tested on: RPMI-8226
EKVX = tested on: EKVX
OVCAR-3 = tested on: OVCAR-3
UACC-62 = tested on: UACC-62
MCF7 = tested on: MCF7
HCC 2998 = tested on: HCC 2998
SF-295 = tested on: SF-295
HCT-15 = tested on: HCT-15
T47D = tested on: T47D
SNB-19 = tested on: SNB-19
SK-MEL-2 = tested on: SK-MEL-2
SR = tested on: SR
HOP-62 = tested on: HOP-62
HOP-92 = tested on: HOP-92
OVCAR-4 = tested on: OVCAR-4
HCT-116 = tested on: HCT-116
RXF 393 = tested on: RXF 393
A549 = tested on: A549
SK-MEL-5 = tested on: SK-MEL-5
MDA-MB-231 = tested on: MDA-MB-231
K562 = tested on: K562
MDA-N = tested on: MDA-N
ACHN = tested on: ACHN
UO-31 = tested on: UO-31
NCI/ADR-RES = tested on: NCI/ADR-RES
CCRF-CEM = tested on: CCRF-CEM
SK-OV-3 = tested on: SK-OV-3
UACC-257 = tested on: UACC-257
NCI-H460 = tested on: NCI-H460
OVCAR-5 = tested on: OVCAR-5
NCI-H23 = tested on: NCI-H23
PC-3 = tested on: PC-3
NCI-H522 = tested on: NCI-H522
MOLT-4 = tested on: MOLT-4
SNB-75 = tested on: SNB-75
TK-10 = tested on: TK-10
HL-60 = tested on: HL-60
SN12C = tested on: SN12C

Measured: GI50

CCC1=NC(N/N=C/c2ccccc2O)=N/C1=C\c1ccccc1O
2.07 µM: HCT-15
inactive: Malme-3M 12.4 µM | U-251 19.3 µM | CAKI-1 19.6 µM | OVCAR-8 8.57 µM | COLO 205 13.3 µM | NCI-H226 22.1 µM | Hs-578T 23.9 µM | BT-549 12.1 µM | HT-29 4.81 µM | 786-0 6.76 µM | A498 26.7 µM | KM12 17 µM | M14 10.1 µM | MDA-MB-435 13.3 µM | LOX IMVI 5.61 µM | DU-145 18.2 µM | SW-620 7.5 µM | IGROV-1 11.5 µM | SK-MEL-28 23.7 µM | SF-268 4.98 µM | RPMI-8226 12.9 µM | EKVX 10.2 µM | OVCAR-3 2.89 µM | UACC-62 9.79 µM | MCF7 5.52 µM | HCC 2998 10.2 µM | SF-295 7.69 µM | T47D 12.1 µM | SNB-19 14.6 µM | SK-MEL-2 12.6 µM | SR 27.9 µM | HOP-62 8.55 µM | HOP-92 21.1 µM | OVCAR-4 5.6 µM | HCT-116 7.59 µM | RXF 393 18.3 µM | A549 12.9 µM | SK-MEL-5 19.5 µM | MDA-MB-231 36.3 µM | K562 12.2 µM | MDA-N 17 µM | ACHN 4.11 µM | UO-31 2.7 µM | NCI/ADR-RES 2.68 µM | CCRF-CEM 3.94 µM | SK-OV-3 12.4 µM | UACC-257 14.8 µM | NCI-H460 2.57 µM | OVCAR-5 26.7 µM | NCI-H23 14.4 µM | PC-3 15.5 µM | NCI-H522 6.43 µM | MOLT-4 6.56 µM | SNB-75 17.5 µM | TK-10 11.2 µM | HL-60 4.53 µM | SN12C 21.3 µM
